In US20250223268A1, “4-Methylsulfonylbenzamide Compound, Preparation Method, Herbicidal Composition And Use” (Jiangsu Flag Chemical Industry Co., Ltd., priority 2022, published 2025):

Columns and labels:
Experiment in all cases: Greenhouse herbicidal activity assay, post-emergence
Assay type in all cases: in vivo
Settings in all cases: Post-emergence test, rate 150 g a.i./hm^2, grade by fresh weight inhibition rate
[1] = tested on: Echinochloa crusgalli
Procedure, shortened: (§1)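 Graded A (≥80%) to E (<20%) by fresh weight inhibition, read 14-21 days after spraying. Plants were pot-grown in a growth chamber and received foliar application at the 3-6 leaf stage, being air-dried and returned to the chamber afterwards.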

[2] = tested on: Cyperus iria
Procedure, shortened: as §1

[3] = tested on: Digitaria sanguinalis
Procedure, shortened: as §1

[4] = tested on: Eclipta prostrata
Procedure, shortened: as §1

[5] = tested on: Leptochloa chinensis
Procedure, shortened: as §1

Structure (SMILES) | Control efficacy grade, Echinochloa crusgalli [1] | Control efficacy grade, Cyperus iria [2] | Control efficacy grade, Digitaria sanguinalis [3] | Control efficacy grade, Eclipta prostrata [4] | Control efficacy grade, Leptochloa chinensis [5] | pest or weed control at 150 g/ha ([1]; Echinochloa crus-galli, read-out: Control efficacy grade, Echinochloa crusgalli) [%] | pest or weed control at 150 g/ha ([2]; Cyperus iria, read-out: Control efficacy grade, Cyperus iria) [%] | pest or weed control at 150 g/ha ([3]; Digitaria sanguinalis, read-out: Control efficacy grade, Digitaria sanguinalis) [%] | pest or weed control at 150 g/ha ([4]; Eclipta prostrata, read-out: Control efficacy grade, Eclipta prostrata) [%] | pest or weed control at 150 g/ha ([5]; Dinebra chinensis, read-out: Control efficacy grade, Leptochloa chinensis) [%]
CCCC[S+]([O-])c1c(S(C)(=O)=O)ccc(C(=O)Nc2nnco2)c1Cl (racemic) [Compound 3-278] | A (Fresh weight inhibition rate≥80% to 100%) | A (Fresh weight inhibition rate≥80% to 100%) | A (Fresh weight inhibition rate≥80% to 100%) | A (Fresh weight inhibition rate≥80% to 100%) | A (Fresh weight inhibition rate≥80% to 100%) | – | – | – | – | –
CCCC[S+]([O-])c1c(S(C)(=O)=O)ccc(C(=O)Nc2ncnn2C)c1Cl (racemic) [Compound 2-12] | A (Fresh weight inhibition rate≥80% to 100%) | A (Fresh weight inhibition rate≥80% to 100%) | A (Fresh weight inhibition rate≥80% to 100%) | A (Fresh weight inhibition rate≥80% to 100%) | A (Fresh weight inhibition rate≥80% to 100%) | – | – | – | – | –
CCc1nnc(NC(=O)c2ccc(S(C)(=O)=O)c([S+]([O-])CCCl)c2Cl)o1 (racemic) [Compound 3-495] | A (Fresh weight inhibition rate≥80% to 100%) | A (Fresh weight inhibition rate≥80% to 100%) | A (Fresh weight inhibition rate≥80% to 100%) | A (Fresh weight inhibition rate≥80% to 100%) | A (Fresh weight inhibition rate≥80% to 100%) | – | – | – | – | –
CCc1nnc(NC(=O)c2ccc(S(C)(=O)=O)c([S+]([O-])CC3CC3)c2Cl)o1 (racemic) [Compound 3-415] | A (Fresh weight inhibition rate≥80% to 100%) | A (Fresh weight inhibition rate≥80% to 100%) | A (Fresh weight inhibition rate≥80% to 100%) | A (Fresh weight inhibition rate≥80% to 100%) | A (Fresh weight inhibition rate≥80% to 100%) | – | – | – | – | –
Cn1ncnc1NC(=O)c1ccc(S(C)(=O)=O)c([S+]([O-])C2CC2)c1Cl (racemic) [Compound 2-33] | A (Fresh weight inhibition rate≥80% to 100%) | A (Fresh weight inhibition rate≥80% to 100%) | A (Fresh weight inhibition rate≥80% to 100%) | A (Fresh weight inhibition rate≥80% to 100%) | A (Fresh weight inhibition rate≥80% to 100%) | – | – | – | – | –
CCCC[S+]([O-])c1c(S(C)(=O)=O)ccc(C(=O)Nc2nonc2C)c1Cl (racemic) [Compound 4-12] | A (Fresh weight inhibition rate≥80% to 100%) | A (Fresh weight inhibition rate≥80% to 100%) | A (Fresh weight inhibition rate≥80% to 100%) | A (Fresh weight inhibition rate≥80% to 100%) | B (Fresh weight inhibition rate≥260% to <80%) | – | – | – | – | –
C=CCSc1c(S(C)(=O)=O)ccc(C(=O)Nc2nnnn2C)c1Cl [Compound 1-67] | A (Fresh weight inhibition rate≥80% to 100%) | A (Fresh weight inhibition rate≥80% to 100%) | A (Fresh weight inhibition rate≥80% to 100%) | A (Fresh weight inhibition rate≥80% to 100%) | A (Fresh weight inhibition rate≥80% to 100%) | – | – | – | – | –
CCC(C)Sc1c(S(C)(=O)=O)ccc(C(=O)Nc2nnco2)c1Cl (single isomer, unassigned) [Compound 3-283] | A (Fresh weight inhibition rate≥80% to 100%) | A (Fresh weight inhibition rate≥80% to 100%) | A (Fresh weight inhibition rate≥80% to 100%) | A (Fresh weight inhibition rate≥80% to 100%) | A (Fresh weight inhibition rate≥80% to 100%) | – | – | – | – | –
Cc1nnc(NC(=O)c2ccc(S(C)(=O)=O)c(SCC#N)c2Cl)o1 [Compound 3-192] | A (Fresh weight inhibition rate≥80% to 100%) | A (Fresh weight inhibition rate≥80% to 100%) | A (Fresh weight inhibition rate≥80% to 100%) | A (Fresh weight inhibition rate≥80% to 100%) | A (Fresh weight inhibition rate≥80% to 100%) | – | – | – | – | –
CS(=O)(=O)c1ccc(C(=O)Nc2nnco2)c(Cl)c1[S+]([O-])CC(F)F (racemic) [Compound 3-329] | A (Fresh weight inhibition rate≥80% to 100%) | A (Fresh weight inhibition rate≥80% to 100%) | A (Fresh weight inhibition rate≥80% to 100%) | A (Fresh weight inhibition rate≥80% to 100%) | A (Fresh weight inhibition rate≥80% to 100%) | – | – | – | – | –
Cn1ncnc1NC(=O)c1ccc(S(C)(=O)=O)c([S+]([O-])C2CCC2)c1Cl (racemic) [Compound 2-38] | A (Fresh weight inhibition rate≥80% to 100%) | A (Fresh weight inhibition rate≥80% to 100%) | A (Fresh weight inhibition rate≥80% to 100%) | A (Fresh weight inhibition rate≥80% to 100%) | A (Fresh weight inhibition rate≥80% to 100%) | – | – | – | – | –
CCCSc1c(S(C)(=O)=O)ccc(C(=O)Nc2nnc(CC)o2)c1Cl [Compound 3-383] | A (Fresh weight inhibition rate≥80% to 100%) | A (Fresh weight inhibition rate≥80% to 100%) | B (Fresh weight inhibition rate≥260% to <80%) | A (Fresh weight inhibition rate≥80% to 100%) | B (Fresh weight inhibition rate≥260% to <80%) | – | – | – | – | –
CCC(C)[S+]([O-])c1c(S(C)(=O)=O)ccc(C(=O)Nc2nnco2)c1Cl (mixture of isomers) [Compound 3-285] | A (Fresh weight inhibition rate≥80% to 100%) | A (Fresh weight inhibition rate≥80% to 100%) | A (Fresh weight inhibition rate≥80% to 100%) | A (Fresh weight inhibition rate≥80% to 100%) | A (Fresh weight inhibition rate≥80% to 100%) | – | – | – | – | –
Cc1nnc(NC(=O)c2ccc(S(C)(=O)=O)c(SCC3CC3)c2Cl)o1 [Compound 3-37] | A (Fresh weight inhibition rate≥80% to 100%) | A (Fresh weight inhibition rate≥80% to 100%) | A (Fresh weight inhibition rate≥80% to 100%) | A (Fresh weight inhibition rate≥80% to 100%) | A (Fresh weight inhibition rate≥80% to 100%) | – | – | – | – | –
Cn1nnnc1NC(=O)c1ccc(S(C)(=O)=O)c([S+]([O-])CC#N)c1Cl (racemic) [Compound 1-63] | A (Fresh weight inhibition rate≥80% to 100%) | A (Fresh weight inhibition rate≥80% to 100%) | B (Fresh weight inhibition rate≥260% to <80%) | A (Fresh weight inhibition rate≥80% to 100%) | A (Fresh weight inhibition rate≥80% to 100%) | – | – | – | – | –
COCSc1c(S(C)(=O)=O)ccc(C(=O)Nc2nnc(C)o2)c1Cl [Compound 3-262] | A (Fresh weight inhibition rate≥80% to 100%) | A (Fresh weight inhibition rate≥80% to 100%) | A (Fresh weight inhibition rate≥80% to 100%) | A (Fresh weight inhibition rate≥80% to 100%) | A (Fresh weight inhibition rate≥80% to 100%) | – | – | – | – | –
CCC[S+]([O-])c1c(S(C)(=O)=O)ccc(C(=O)Nc2ncnn2C)c1Cl (racemic) [Compound 2-2] | A (Fresh weight inhibition rate≥80% to 100%) | A (Fresh weight inhibition rate≥80% to 100%) | A (Fresh weight inhibition rate≥80% to 100%) | A (Fresh weight inhibition rate≥80% to 100%) | A (Fresh weight inhibition rate≥80% to 100%) | – | – | – | – | –
Cc1nonc1NC(=O)c1ccc(S(C)(=O)=O)c([S+]([O-])CC2CC2)c1Cl (centres unmarked) [Compound 4-33, 2-chloro-3-((cyclopropylmethyl)sulfinyl)-N-(4-methyl-1,2,5-oxadiazol-3-yl)-4-(methylsulfonyl)benzamide] | – | – | – | – | – | 80 to 100 | 80 to 100 | 80 to 100 | 80 to 100 | 80 to 100
CS(=O)(=O)c1ccc(C(=O)Nc2nnc(C3CC3)o2)c(Cl)c1SC1CC1 [Compound 3-651] | A (Fresh weight inhibition rate≥80% to 100%) | A (Fresh weight inhibition rate≥80% to 100%) | A (Fresh weight inhibition rate≥80% to 100%) | A (Fresh weight inhibition rate≥80% to 100%) | A (Fresh weight inhibition rate≥80% to 100%) | – | – | – | – | –
